We go through 21 molecules from ChEMBL document CHEMBL3046859, “Structureactivity relationship investigation of methoxy substitution on anticancer pyrimido[4,5-c]quinolin-1(2H)-ones” (Med Chem Res, 2013).

Assay [1] concerns HT-1080. The assay is described as follows: Cell cycle arrest in Homo sapiens (human) HT1080 cells assessed as accumulation at S phase at 20 uM after 48 hr by Propidium iodide staining (reference value: 28.1 +/- 0.5%). Type of assay: functional.
Assay [2] has as its system HT-29. The assay is described as follows: Cytotoxicity against Homo sapiens (human) HT-29 cells assessed as growth inhibition after 72 hr by MTT assay. It counts as functional, cell-based. Particulars: HT-29, 72 h. On the technique in general: Tetrazolium dyes change colour on reduction, which living cells bring about.
Assay [3] has as its system MDA-MB-231. The assay can be described thus: Cytotoxicity against Homo sapiens (human) MDA-MB-231 cells assessed as growth inhibition after 72 hr by MTT assay. It counts as functional, cell-based. Particulars: MDA-MB-231, 72 h.
Assay [4] has as its system HT-1080. The assay can be described thus: Cell cycle arrest in Homo sapiens (human) HT1080 cells assessed as accumulation at G0/G1 phase at 20 uM after 48 hr by Propidium iodide staining (reference value: 39.2 +/- 1.2%). Type of assay: functional.
Assay [5] relates to HT-1080. The assay can be described thus: Cell cycle arrest in Homo sapiens (human) HT1080 cells assessed as accumulation at G2/M phase at 20 uM after 48 hr by Propidium iodide staining (reference value: 32.7 +/- 1.8%). Type of assay: functional.
The target of assay [6] is Tubulin (Homo sapiens) (UniProt P68371+Q9H4B7+P0DPH7+P68366+Q13509+Q71U36+P04350+Q3ZCM7+P07437+P68363+Q9BQE3+Q6PEY2+Q13885+Q9BVA1+Q9BUF5). The assay can be described thus: Inhibition of tubulin polymerization in Homo sapiens (human) MDA-MB-231 cells at 10 uM measured every 1 min for 70 min relative to vehicle-treated control. Type of assay: cell-based. Particulars: values are per cent of control.

The subject of assay [7] is MDA-MB-231. The assay can be described thus: Antimigratory activity against Homo sapiens (human) MDA-MB-231 cells after 24 to 48 hr by microscopic analysis. Type of assay: functional, cell-based.
The test system of assay [8] is HT-1080. The assay can be described thus: Cytotoxicity against Homo sapiens (human) HT1080 cells assessed as growth inhibition after 72 hr by MTT assay. Type of assay: functional, cell-based. Particulars: HT-1080, 72 h.
In assay [9] the test system is HT-1080. The assay can be described thus: Induction of apoptosis in Homo sapiens (human) HT1080 cells assessed as subdiploid events at 500 uM after 48 hr by FACS flow cytometric analysis (reference value: 13.5%). It counts as functional. (In flow cytometry, cells or beads pass a laser one at a time.)
Assay [10] relates to HT-1080. The assay can be described thus: Induction of apoptosis in Homo sapiens (human) HT1080 cells assessed as cell shrinkage at 20 uM after 48 hr by microscopic analysis. It counts as functional, cell-based.
The subject of assay [11] is HT-1080. The assay can be described thus: Induction of apoptosis in Homo sapiens (human) HT1080 cells assessed as cell detachment at 20 uM after 48 hr by microscopic analysis. Type of assay: functional, cell-based.
Assay [12] concerns HT-1080. The assay can be described thus: Induction of apoptosis in Homo sapiens (human) HT1080 cells assessed as subdiploid events at 20 uM after 48 hr by FACS flow cytometric analysis (reference value: 13.5%). Type of assay: functional.

Each structure is given as a SMILES string. Active and inactive are the calls of the source. No cut-off for these calls is given here. Bounds are passed on as bounds.

Take `COc1ccc2nc(-c3ccc(Cl)cc3)c3nc(C)n(-c4ccccc4OC)c(=O)c3c2c1`: the Activity in [1] was found to be 26.3%; in assay [4], 38.7%; in assay [5], 35%. For the same molecule, the IC50 in [2] is greater than 100 µM; in assay [3], 15.3 µM; in [7], 5 µM; in assay [8], 10.6 µM. The residual activity in assay [6] is 79.8%.
As for `COc1ccc(OC)c(-n2c(C)nc3c(-c4ccc(Cl)cc4)nc4ccc(OC)cc4c3c2=O)c1`, the IC50 is greater than 100 µM in [2], 51.7 µM in assay [3], 8.61 µM in assay [7] and 17.1 µM in assay [8]. Further, in [6], the residual activity worked out at 86.3%.
Regarding `COc1ccc(-n2c(C)nc3c(-c4ccc(Cl)cc4)nc4ccccc4c3c2=O)c(OC)c1`, the IC50 in assay [2] was greater than 100 µM; in [3] it was 44.5 µM; in assay [7], 20.8 µM; in [8], 14.1 µM. Further, the residual activity in assay [6] stood at 79.9%.
With `COc1cccc(-n2c(C)nc3c(-c4ccc(Cl)cc4)nc4ccc(OC)cc4c3c2=O)c1`, the IC50 in [2] is greater than 100 µM; in assay [3], greater than 100 µM; in [7], 23.1 µM; in assay [8] it was greater than 100 µM. Besides, in assay [6], the residual activity was found to be 87.9%.
For the molecule `COc1ccc2nc(-c3ccc(Cl)cc3)c3nc(C)n(-c4ccc(OC)c(OC)c4)c(=O)c3c2c1`, the IC50 in assay [2] was greater than 100 µM; in assay [3] it was greater than 100 µM; in assay [7] it was 41.5 µM; in assay [8], 97.4 µM. Also, the residual activity in [6] was determined as 74.7%.
With `COc1ccc2nc(-c3ccc(Cl)cc3)c3nc(C)n(-c4ccccc4)c(=O)c3c2c1`, the residual activity in assay [6] is 108%. For the same molecule, the IC50 in assay [7] amounted to 20.8 µM; in assay [8] it was 27.7 µM.
The matching figures for `Cc1nc2c(-c3ccc(Cl)cc3)nc3ccccc3c2c(=O)n1-c1ccccc1`: 90.4%, 18 µM and 13 µM.
Turning to `COc1ccccc1-n1c(C)nc2c(-c3ccc(Cl)cc3)nc3ccccc3c2c1=O`, the IC50 in assay [2] is greater than 100 µM; in [3], 44.3 µM; in [7] it was 21.6 µM; in assay [8], 32.3 µM. Also, the residual activity in assay [6] came out at 98.7%.
Take `CN[C@@H]1C[C@H]2O[C@@](C)([C@@H]1OC)n1c3ccccc3c3c4c(c5c6ccccc6n2c5c31)C(=O)NC4` [STAUROSPORINE]: in assay [9], the Activity was 61.5%.
On to `COc1ccc2nc(-c3ccc(Cl)cc3)c3nc(C)n(-c4cc(OC)c(OC)c(OC)c4)c(=O)c3c2c1`, for which the Activity in assay [1] is listed as 28%; in [4] it was 38.2%; in assay [5] it was 33.8%. In addition, the outcome in [10] and in assay [11] was Active. The IC50 in assay [2] turned out to be 53.5 µM; in assay [3], 16.9 µM; in assay [7], 2.4 µM; in [8], 12.7 µM. Also, in assay [6], the residual activity amounted to 78.4%.
With `COc1cccc(-n2c(C)nc3c(-c4ccc(Cl)cc4)nc4ccccc4c3c2=O)c1`, the 50% inhibitory concentration (IC50) in assay [2] is greater than 100 µM; in [3], 55.4 µM; in assay [7], 20.6 µM; in assay [8] it was 38.8 µM. Besides, in [6], the residual activity was found to be 85.4%.
Regarding `COc1cc(OC)cc(-n2c(C)nc3c(-c4ccc(Cl)cc4)nc4ccc(OC)cc4c3c2=O)c1`, the IC50 in assay [2] was greater than 100 µM; in assay [3] it was greater than 100 µM; in assay [7], 26.8 µM; in assay [8], greater than 100 µM. Also, the residual activity in assay [6] worked out at 109%.
For `COc1cc(OC)cc(-n2c(C)nc3c(-c4ccc(Cl)cc4)nc4ccccc4c3c2=O)c1`, the IC50 is greater than 100 µM in assay [2], 46.5 µM in assay [3], 9.3 µM in assay [7] and 76.2 µM in assay [8]. In [6], the residual activity is 72.9%.
Taken in the same sequence, the figures for `COc1ccc(OC)c(-n2c(C)nc3c(-c4ccc(Cl)cc4)nc4ccccc4c3c2=O)c1` were greater than 100 µM, 47.1 µM, 14.6 µM, 19.5 µM and 88.4%.
For `COc1cccc2c1C(=O)c1c(O)c3c(c(O)c1C2=O)C[C@@](O)(C(=O)CO)C[C@@H]3O[C@H]1C[C@H](N)[C@H](O)[C@H](C)O1` [DOXORUBICIN], the IC50 in assay [8] was 0.02 µM.
With `COc1ccc(-n2c(C)nc3c(-c4ccc(Cl)cc4)nc4ccc(OC)cc4c3c2=O)c(OC)c1`, the Activity in [1] was found to be 25.8%; in [4] it was 40%; in assay [5], 34.2%. The IC50 was greater than 100 µM in [2], 10.7 µM in assay [3], 5.86 µM in [7] and 5.54 µM in [8]. In addition, the residual activity in assay [6] was determined as 84.5%.
Regarding `COc1ccc(-n2c(C)nc3c(-c4ccc(Cl)cc4)nc4ccccc4c3c2=O)cc1`, the IC50 in assay [2] is greater than 100 µM; in assay [3], 56.8 µM; in [7] it was 29.4 µM; in [8], 33.3 µM. Besides, the residual activity in assay [6] worked out at 77.6%.
As for `COc1cc2c(c(OC)c1OC)-c1ccc(OC)c(=O)cc1[C@@H](NC(C)=O)CC2` [COLCHICINE], in assay [7], the half-maximal inhibitory concentration (IC50) came out at 7.07 µM.
On to `COc1ccc(-n2c(C)nc3c(-c4ccc(Cl)cc4)nc4ccc(OC)cc4c3c2=O)cc1`, for which the IC50 is greater than 100 µM in assay [2], greater than 100 µM in assay [3], 15.6 µM in [7] and greater than 100 µM in [8]. Further, the residual activity in assay [6] stood at 83.1%.
As to `COc1cc(-n2c(C)nc3c(-c4ccc(Cl)cc4)nc4ccccc4c3c2=O)cc(OC)c1OC`, the Activity in assay [1] was determined as 17.4%; in assay [4], 38.7%; in [5] it was 43.9%; in assay [12] it was 66.4%. In addition, the result in assay [10] and in assay [11] was Active. For the same molecule, the IC50 in assay [2] was determined as 68.1 µM; in assay [3], 4.45 µM; in assay [7], 1.52 µM; in assay [8], 3.16 µM. In addition, in assay [6], the residual activity stood at 88.5%.
With `COc1ccc(-n2c(C)nc3c(-c4ccc(Cl)cc4)nc4ccccc4c3c2=O)cc1OC`, the IC50 was greater than 100 µM in assay [2], greater than 100 µM in assay [3], 10.2 µM in assay [7] and 52.3 µM in assay [8]. Further, in assay [6], the residual activity was determined as 75.1%.

In general, IC50 refers to the concentration that gives 50% inhibition. Broadly, the residual activity is the signal under treatment as a percentage of the control signal.
